Measurements as given in publication PMC11007962, “First-in-human study of GFH018, a small molecule inhibitor of transforming growth factor-β receptor I inhibitor, in patients with advanced solid tumors” (BMC Cancer, 2024).

Test system: patients with advanced solid tumors
Settings: 85 mg BID 7d-on/7d-off (N = 6)
Procedure: The study consisted of a dose-escalation part followed by an expansion part. In the dose escalation part, a 3-day pharmacokinetic (PK) lead-in period was conducted for a single dose in the first treatment cycle. Patients received GFH018 once on cycle 1 day 1 (C1D1) and underwent serial PK testing over the first 3 days. On C1D4, patients were administered the corresponding dose of GFH018 BID 14 days on/14 days off. The first cycle was defined as 31 days, including 3-day PK leading-in period with GFH018 single dosing and then 14d-on/14d-off dosing schedule. The subsequent cycles were 28 days. The starting dose of GFH018 was 5 mg, with eight planned dose levels up to 85 mg (5, 10, 20, 30, 40, 50, 65, and 85 mg). A modified 3+3 design was used to determine the maximum tolerance dose (MTD) and RDE, guided by safety/tolerability and PK data. Dose-limiting toxicities (DLTs) were evaluated during the first cycle at each dose level. The safety of 85 mg BID, 7 d-on/7 d-off, was explored after confirming the safety of 14 d-on/14 d-off. The DLTs were defined as hematological toxicities, including G4 neutropenia lasting for more than 5 days, G3 febrile neutropenia, G4 anemia, G4 thrombocytopenia, or G3 thrombocytopenia accompanied by bleeding, and ≥ G3 nonhematological toxicity (except for diarrhea, nausea, vomiting, and rash recovering ≤ G2 after supportive treatment within 3 days). The DLTs for cardiac toxicities included ≥ G2 cardiac valve abnormalities, ≥ G2 left ventricular ejection fraction (LVEF) decrease, any cardiovascular impairment shown in imaging, and abnormal highly sensitive troponin (hs-Tn) increased to ≥ twice the baseline in two consecutive tests with an interval ≥ 3 days. In the expansion part, patients were orally administered GFH018 RDE twice daily to further evaluate the safety of RDE and other dose regimens. […] The treatment cycle lasted 28 days.
All enrolled patients were monitored regularly after GFH018 administration. Safety assessments included adverse events (AEs), serious AEs (SAEs), laboratory assessments, vital signs, physical examinations, electrocardiography and echocardiography. AEs were graded according to the NCI Common Terminology Criteria for Adverse Events (NCI-CTCAE) v5.0. All AEs were followed up until they were stable or had recovered to baseline. Adverse events of special interest (AESIs) were predefined as echocardiographic abnormalities such as aggravated stenosis or regurgitation of the heart valves, clinically significant decreases in LVEF, brain natriuretic peptide (BNP) or N-terminal pro-brain natriuretic peptide (NT-proBNP) increases, and hs-Tn increases judged by investigators.
For the safety and efficacy analyses, data from patients who received GFH018 at the same dose in the dose-escalation and expansion cohorts were pooled. The demographic and baseline characteristics were summarized using descriptive methods. Safety and efficacy data were summarized for all patients who received at least one dose of GFH018. The ORR and DCR were summarized by cohort and overall. When the sample size of the analyzed group was ten or more, the Kaplan–Meier method was used to estimate the median PFS and TTP. In this study, treatment-emergent AEs (TEAEs) were defined as AEs that occurred on or after the first dosing date of GFH018 and no later than 30 days after the last dose of GFH018. The incidence and severity of AEs were descriptively summarized according to dose level. The PK parameters of GFH018 were calculated using noncompartmental analysis methods. All plasma PK data were summarized by cohort and visit day or time using descriptive statistics.

Cc1cccc(-c2nn3c(c2-c2ccc4ncnn4c2/C=C/C(N)=O)CCC3)n1 [GFH018]
TEAE: ALT increased, any grade (Table S3): 0 n (%)
TEAE: ALT increased, maximal CTCAE grade G1: 0 n (%)
TEAE: ALT increased, maximal CTCAE grade G2: 0 n (%)
TEAE: ALT increased, maximal CTCAE grade G3: 0 n (%)
TEAE: ALT increased, maximal CTCAE grade G4: 0 n (%)
TEAE: ALT increased, maximal CTCAE grade G5: 0 n (%)
TEAE: AST increased: 1 (16.7%) n (%)
TEAE: AST increased, any grade (Table S3): 1 (16.7%) n (%)
TEAE: AST increased, maximal CTCAE grade G1: 1 (16.7%) n (%)
TEAE: AST increased, maximal CTCAE grade G2: 0 n (%)
TEAE: AST increased, maximal CTCAE grade G3: 0 n (%)
TEAE: AST increased, maximal CTCAE grade G4: 0 n (%)
TEAE: AST increased, maximal CTCAE grade G5: 0 n (%)
TEAE: Abdominal distention: 1 (16.7%) n (%)
TEAE: Abdominal pain: 2 (33.3%) n (%)
TEAE: Anemia: 2 (33.3%) n (%)
TEAE: Asthenia: 1 (16.7%) n (%)
TEAE: Bilirubin conjugated increased: 1 (16.7%) n (%)
TEAE: Blood albumin decreased: 1 (16.7%) n (%)
TEAE: Blood bilirubin increased: 0 n (%)
TEAE: C-reactive protein increased: 0 n (%)
TEAE: C-reactive protein increased, any grade (Table S3): 0 n (%)
TEAE: C-reactive protein increased, maximal CTCAE grade G1: 0 n (%)
TEAE: C-reactive protein increased, maximal CTCAE grade G2: 0 n (%)
TEAE: C-reactive protein increased, maximal CTCAE grade G3: 0 n (%)
TEAE: C-reactive protein increased, maximal CTCAE grade G4: 0 n (%)
TEAE: C-reactive protein increased, maximal CTCAE grade G5: 0 n (%)
TEAE: Constipation: 0 n (%)
TEAE: Decreased appetite: 2 (33.3%) n (%)
TEAE: Decreased appetite, any grade (Table S3): 2 (33.3%) n (%)
TEAE: Decreased appetite, maximal CTCAE grade G1: 1 (16.7%) n (%)
TEAE: Decreased appetite, maximal CTCAE grade G2: 1 (16.7%) n (%)
TEAE: Decreased appetite, maximal CTCAE grade G3: 0 n (%)
TEAE: Decreased appetite, maximal CTCAE grade G4: 0 n (%)
TEAE: Decreased appetite, maximal CTCAE grade G5: 0 n (%)
TEAE: GGT increased: 0 n (%)
TEAE: GGT increased, any grade (Table S3): 0 n (%)
TEAE: GGT increased, maximal CTCAE grade G1: 0 n (%)
TEAE: GGT increased, maximal CTCAE grade G2: 0 n (%)
TEAE: GGT increased, maximal CTCAE grade G3: 0 n (%)
TEAE: GGT increased, maximal CTCAE grade G4: 0 n (%)
TEAE: GGT increased, maximal CTCAE grade G5: 0 n (%)
TEAE: Hypoalbuminemia: 1 (16.7%) n (%)
TEAE: LDH increased: 0 n (%)
TEAE: LDH increased, any grade (Table S3): 0 n (%)
TEAE: LDH increased, maximal CTCAE grade G1: 0 n (%)
TEAE: LDH increased, maximal CTCAE grade G2: 0 n (%)
TEAE: LDH increased, maximal CTCAE grade G3: 0 n (%)
TEAE: LDH increased, maximal CTCAE grade G4: 0 n (%)
TEAE: LDH increased, maximal CTCAE grade G5: 0 n (%)
TEAE: Lymphocyte count decreased: 3 (50.0%) n (%)
TEAE: Platelet count decreased: 1 (16.7%) n (%)
TEAE: Proteinuria: 1 (16.7%) n (%)
TEAE: Sinus tachycardia: 2 (33.3%) n (%)
TEAE: Urine protein present: 1 (16.7%) n (%)
TEAE: White blood cell count decreased: 1 (16.7%) n (%)
TEAE: White blood cells urine positive: 0 n (%)
TEAE: White blood cells urine positive, any grade (Table S3): 0 n (%)
TEAE: White blood cells urine positive, maximal CTCAE grade G1: 0 n (%)
TEAE: White blood cells urine positive, maximal CTCAE grade G2: 0 n (%)
TEAE: White blood cells urine positive, maximal CTCAE grade G3: 0 n (%)
TEAE: White blood cells urine positive, maximal CTCAE grade G4: 0 n (%)
TEAE: White blood cells urine positive, maximal CTCAE grade G5: 0 n (%)
TRAE: ALP increased: 1 (16.7%) n (%)
TRAE: ALT increased: 0 n (%)
TRAE: AST increased: 0 n (%)
TRAE: Anemia: 1 (16.7%) n (%)
TRAE: GGT increased: 0 n (%)
